According to ChEMBL document CHEMBL3526128, “Covalent modification and time-dependent inhibition of human CYP2E1 by the meta-isomer of acetaminophen” (Drug Metab Dispos, 2012):
pKi: −log10 of the molar value.

Columns and labels:
Format in all cases: ADME
CYP2E1 [1] = molecular target: T1, CYP2E1 (Homo sapiens, UniProt P05181); assay: Inhibition of human CYP2E1 assessed as chlorzoxazone 6-hydroxylase activity at 2.5 mM after 72 hrs preincubation by HPLC analysis (RVb = 100%); design: scale not given: the % may be the effect or the level left; conditions: probe chlorzoxazone (6-hydroxylation), read-out: Activity
CYP2E1 [2] = molecular target: T1, CYP2E1; assay: Inhibition of human CYP2E1 assessed as chlorzoxazone 6-hydroxylase activity at 20 mM after 72 hrs preincubation by HPLC analysis (RVb = 100%); design: scale not given: the % may be the effect or the level left; conditions: probe chlorzoxazone (6-hydroxylation), read-out: Activity
CYP2E1 [3] = molecular target: T1, CYP2E1; assay: Inhibition of human CYP2E1 assessed as chlorzoxazone 6-hydroxylase activity at 40 mM after 72 hrs preincubation by HPLC analysis in presence of 1 mM NADPH (RVb = 100%); design: scale not given: the % may be the effect or the level left; conditions: probe chlorzoxazone (6-hydroxylation), read-out: Activity
CYP2E1 [4] = molecular target: T1, CYP2E1; assay: Inhibition of human CYP2E1 assessed as chlorzoxazone 6-hydroxylase activity at 20 mM after 72 hrs preincubation by HPLC analysis in presence of 1 mM NADPH and 5 mM glutathione (RVb = 100%); design: scale not given: the % may be the effect or the level left; conditions: probe chlorzoxazone (6-hydroxylation), read-out: Activity
Cytochrome P450 2E1 [5] = molecular target: T2, Cytochrome P450 2E1 (Homo sapiens, UniProt P05181); assay: Inhibition of human CYP2E1-mediated chlorzoxazone hydroxylase activity at 2.5 to 40 mM after 72 hrs by LC-MS/MS analysis in presence of 1 mM NADPH; conditions: recombinant enzyme, 40000 µM
Cytochrome P450 2E1 [6] = molecular target: T2, Cytochrome P450 2E1; assay: Inhibition of human CYP2E1-mediated chlorzoxazone hydroxylase activity at 2.5 to 40 mM by LC-MS/MS analysis; conditions: recombinant enzyme, 40000 µM, TDE = time-dependent effect
CYP2E1 [7] = molecular target: T1, CYP2E1; assay: Inhibition of human CYP2E1 assessed as chlorzoxazone 6-hydroxylase activity at 20 mM after 72 hrs preincubation by HPLC analysis in presence of 1 mM NADPH (RVb = 100%); design: scale not given: the % may be the effect or the level left; conditions: probe chlorzoxazone (6-hydroxylation), read-out: Activity
Cytochrome P450 2E1 [8] = molecular target: T2, Cytochrome P450 2E1; assay: (§1) Inhibition of human CYP2E1 assessed as chlorzoxazone 6-hydroxylase activity by HPLC analysis
CYP2E1 [9] = molecular target: T1, CYP2E1; assay: as §1; conditions: human, probe chlorzoxazone (6-hydroxylation)
CYP2E1 [10] = molecular target: T1, CYP2E1; assay: Inhibition of human CYP2E1 assessed as chlorzoxazone 6-hydroxylase activity at 40 mM after 72 hrs preincubation by HPLC analysis (RVb = 100%); design: scale not given: the % may be the effect or the level left; conditions: probe chlorzoxazone (6-hydroxylation), read-out: Activity

T2 sequence (P05181 whole entry): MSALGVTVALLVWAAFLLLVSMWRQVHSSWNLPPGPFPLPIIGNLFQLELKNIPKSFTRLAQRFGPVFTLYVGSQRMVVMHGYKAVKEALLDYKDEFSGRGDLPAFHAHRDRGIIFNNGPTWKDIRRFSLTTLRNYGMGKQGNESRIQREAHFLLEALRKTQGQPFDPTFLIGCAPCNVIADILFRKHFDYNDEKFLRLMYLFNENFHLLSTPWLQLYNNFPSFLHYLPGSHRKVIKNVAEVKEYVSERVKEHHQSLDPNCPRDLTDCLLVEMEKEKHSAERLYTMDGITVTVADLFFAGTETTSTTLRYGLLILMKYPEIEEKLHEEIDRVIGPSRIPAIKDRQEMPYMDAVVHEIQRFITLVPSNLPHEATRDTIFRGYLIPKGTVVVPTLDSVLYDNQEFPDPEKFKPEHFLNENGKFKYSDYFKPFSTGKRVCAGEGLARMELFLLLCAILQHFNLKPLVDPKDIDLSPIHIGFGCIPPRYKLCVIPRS
T1 sequence (P05181 whole entry): as above

SMILES: Nn1nnc2ccccc21
- activity at 72 h, 2500 µM (CYP2E1 [1]): < 1%

SMILES: CC(=O)Nc1cccc(O)c1 [METACETAMOL]
- activity at 72 h, 20000 µM (CYP2E1 [2]): 89.3%
- activity at 72 h, 40000 µM (CYP2E1 [3]): 43.7%
- activity at 72 h, 20000 µM (CYP2E1 [4]): 91.3%
- inhibition (INH) (Cytochrome P450 2E1 [5]): Active
- inhibition (INH) (Cytochrome P450 2E1 [6]): tde
- activity at 72 h, 2500 µM (CYP2E1 [1]): 97.6%
- activity at 72 h, 20000 µM (CYP2E1 [7]): 64.8%
- pKi (Cytochrome P450 2E1 [8]): 2.02
- kinact (CYP2E1 [9]): 0.000133 s⁻¹
- activity at 72 h, 40000 µM (CYP2E1 [10]): 65.7%
